# In patent publication US9902728B2, “Pyrrolo and pyrazolopyrimidines as ubiquitin-specific protease 7 inhibitors” (Forma Therapeutics, Inc., priority 2014, dated 2018):
# Target: T1, USP7 (Homo sapiens, UniProt Q93009)
# T1 construct: USP7, construct USP7 (208-1102) 6*His, Viva Biotech; 6xHis (C); purchased Viva Biotech
# Test: USP7 Assay A (Ubitquin-Rhodamine 110 Assay)
# Assay type: biochemical
# Settings: USP7 activity in USP7 assay A and B (table does not say which assay per compound); read-out: USP7_IC50
# Summary of the method: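 Ub-Rh110 cleavage in 20 mM Tris-HCl pH 8.0 with 1 mM GSH, 0.03% BGG, 0.01% Triton X-100; compound preincubated with enzyme 30 min before substrate.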
# T1 sequence (Q93009 208-1102): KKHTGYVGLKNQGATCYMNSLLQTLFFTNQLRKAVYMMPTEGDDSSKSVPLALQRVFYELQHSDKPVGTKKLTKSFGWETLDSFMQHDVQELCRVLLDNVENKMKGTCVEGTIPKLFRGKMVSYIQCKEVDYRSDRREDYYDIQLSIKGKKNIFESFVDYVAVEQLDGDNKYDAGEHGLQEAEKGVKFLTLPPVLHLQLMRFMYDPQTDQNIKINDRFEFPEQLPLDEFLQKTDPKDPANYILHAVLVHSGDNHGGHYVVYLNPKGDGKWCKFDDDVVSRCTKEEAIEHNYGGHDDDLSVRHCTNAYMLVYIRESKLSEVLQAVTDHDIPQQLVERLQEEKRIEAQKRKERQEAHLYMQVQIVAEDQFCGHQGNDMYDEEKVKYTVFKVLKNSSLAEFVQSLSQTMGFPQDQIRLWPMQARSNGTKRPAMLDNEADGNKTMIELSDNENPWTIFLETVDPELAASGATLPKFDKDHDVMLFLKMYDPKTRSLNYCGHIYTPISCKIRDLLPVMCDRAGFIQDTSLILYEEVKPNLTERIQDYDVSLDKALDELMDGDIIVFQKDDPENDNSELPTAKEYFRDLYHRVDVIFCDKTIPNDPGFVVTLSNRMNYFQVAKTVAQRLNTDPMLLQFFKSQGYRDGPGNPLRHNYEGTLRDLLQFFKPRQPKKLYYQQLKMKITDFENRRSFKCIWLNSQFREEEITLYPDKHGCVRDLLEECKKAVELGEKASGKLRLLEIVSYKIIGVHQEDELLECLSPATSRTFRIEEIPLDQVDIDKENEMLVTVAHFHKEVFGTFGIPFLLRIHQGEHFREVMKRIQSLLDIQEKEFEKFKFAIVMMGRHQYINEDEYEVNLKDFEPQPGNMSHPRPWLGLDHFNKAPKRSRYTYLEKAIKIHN
row,Structure (SMILES),IC50
1,CN[C@H]1CCN(c2ccc(-c3ccc(-n4ncc5c(=O)n(CC6(O)CCN(C(=O)C7CC7)CC6)cnc54)cc3)cc2)C1 [Compound I-689],< 200 nM
2,CN[C@@H]1CCN(c2ccc(-c3ccc(-n4ncc5c(=O)n(CC6(O)CCN(C(=O)C7CC7)CC6)cnc54)cc3)cc2)C1 [Compound I-690],200 to 1000 nM
3,CN1CC(Oc2ccc(-n3ncc4c(=O)n(CC5(O)CCN(C(=O)c6ccc(F)cc6)CC5)cnc43)cc2)C1 [Compound I-692],< 200 nM
4,O=C(c1ccc(F)cc1)N1CCC(O)(Cn2cnc3c(cnn3-c3ccc(OCC4(F)CCOCC4)cc3)c2=O)CC1 [Compound I-693],200 to 1000 nM
5,O=C(c1ccc(F)cc1)N1CCC(O)(Cn2cnc3c(cnn3-c3ccc(OCC4(F)CCC4)cc3)c2=O)CC1 [Compound I-696],200 to 1000 nM
6,CN1CCN(C(=O)N2CCC(O)(Cn3cnc4c(cnn4-c4ccc(OC5CCC(F)(F)CC5)cc4)c3=O)CC2)CC1 [Compound I-697],> 10000 nM
7,O=C(c1cnc(C2CC2)o1)N1CCC(O)(Cn2cnc3c(cnn3-c3ccc(N4CCC(F)(F)CC4)cc3)c2=O)CC1 [Compound I-699],200 to 1000 nM
8,Cc1nnc(-c2ccc(-n3ncc4c(=O)n(CC5(O)CCN(C(=O)c6ccc(F)cc6)CC5)cnc43)cc2)o1 [Compound I-712],1000 to 10000 nM
9,O=C(c1ccc(F)cc1)N1CCC(O)(C(CO)n2cnc3c(cnn3-c3ccc(F)cc3)c2=O)CC1 (centres unmarked) [Compound I-720],1000 to 10000 nM
10,O=C(C1CCc2cn[nH]c2C1)N1CCC(O)(Cn2cnc3c(cnn3-c3ccc(F)cc3)c2=O)CC1 (centres unmarked) [Compound I-724],200 to 1000 nM
11,Cn1ncc2c1CC(C(=O)N1CCC(O)(Cn3cnc4c(cnn4-c4ccc(F)cc4)c3=O)CC1)CC2 (centres unmarked) [Compound I-725],1000 to 10000 nM
12,O=C(c1cnn(C2CC2)c1)N1CCC(O)(Cn2cnc3c(cnn3-c3ccc(F)cc3)c2=O)CC1 [Compound I-726],200 to 1000 nM
13,Cn1cc(C2CCC(C(=O)N3CCC(O)(Cn4cnc5c(cnn5-c5ccc(F)cc5)c4=O)CC3)CC2)cn1 (centres unmarked) [Compound I-727],200 to 1000 nM
14,Cn1cc(C2CCC(C(=O)N3CCC(O)(Cn4cnc5c(cnn5-c5ccc(F)cc5)c4=O)CC3)CC2)cn1 (centres unmarked) [Compound I-728],200 to 1000 nM
15,O=C(C[C@H](C(F)F)n1ccc(Cl)n1)N1CCC(O)(Cn2cnc3c(cnn3-c3ccc(F)cc3)c2=O)CC1 [Compound I-731],< 200 nM
16,O=C(C[C@@H](C(F)F)n1ccc(Cl)n1)N1CCC(O)(Cn2cnc3c(cnn3-c3ccc(F)cc3)c2=O)CC1 [Compound I-732],1000 to 10000 nM
17,O=C(C[C@H](C(F)F)n1cc(Cl)cn1)N1CCC(O)(Cn2cnc3c(cnn3-c3ccc(F)cc3)c2=O)CC1 [Compound I-733],200 to 1000 nM
18,O=C(C[C@@H](C(F)F)n1cc(Cl)cn1)N1CCC(O)(Cn2cnc3c(cnn3-c3ccc(F)cc3)c2=O)CC1 [Compound I-734],> 10000 nM
19,Cc1cnn([C@H](CC(=O)N2CCC(O)(Cn3cnc4c(cnn4-c4ccc(F)cc4)c3=O)CC2)C(F)F)c1 [Compound I-735],1000 to 10000 nM
20,O=C(C1CCC(Oc2ccc(F)cn2)CC1)N1CCC(O)(Cn2cnc3c(cnn3-c3ccc(F)cc3)c2=O)CC1 (centres unmarked) [Compound I-737],< 200 nM
21,O=C(C1CCC(Oc2ccc(F)cn2)CC1)N1CCC(O)(Cn2cnc3c(cnn3-c3ccc(F)cc3)c2=O)CC1 (centres unmarked) [Compound I-738],200 to 1000 nM
22,O=C(C1CCC(Oc2cccc(F)n2)CC1)N1CCC(O)(Cn2cnc3c(cnn3-c3ccc(F)cc3)c2=O)CC1 (centres unmarked) [Compound I-739],< 200 nM
23,O=C(C1CCC(Oc2cccc(F)n2)CC1)N1CCC(O)(Cn2cnc3c(cnn3-c3ccc(F)cc3)c2=O)CC1 (centres unmarked) [Compound I-740],200 to 1000 nM
24,O=C(C1CCC(Oc2cccc(F)n2)CC1)N1CCC(O)(Cn2cnc3c(cnn3-c3ccccc3)c2=O)CC1 (centres unmarked) [Compound I-741],< 200 nM
25,O=C(C1CCC(Oc2cccc(F)n2)CC1)N1CCC(O)(Cn2cnc3c(cnn3-c3ccccc3)c2=O)CC1 (centres unmarked) [Compound I-742],200 to 1000 nM
26,O=C(C1CCC(Oc2ccc(F)cn2)CC1)N1CCC(O)(Cn2cnc3c(cnn3-c3ccccc3)c2=O)CC1 (centres unmarked) [Compound I-743],1000 to 10000 nM
27,O=C(C1CCC(Oc2ccc(F)cn2)CC1)N1CCC(O)(Cn2cnc3c(cnn3-c3ccccc3)c2=O)CC1 (centres unmarked) [Compound I-744],200 to 1000 nM
28,CC1(C(=O)N2CCC(O)(Cn3cnc4c(cnn4-c4ccc(F)cc4)c3=O)CC2)CCC(Oc2ccccn2)CC1 (centres unmarked) [Compound I-745],1000 to 10000 nM

row,Structure (SMILES),IC50
1,CC1(C(=O)N2CCC(O)(Cn3cnc4c(cnn4-c4ccc(F)cc4)c3=O)CC2)CCC(Oc2ccccn2)CC1 (centres unmarked) [Compound I-746],1000 to 10000 nM
2,O=C(C1CCC(Oc2ncccn2)CC1)N1CCC(O)(Cn2cnc3c(cnn3-c3ccc(F)cc3)c2=O)CC1 (centres unmarked) [Compound I-747],1000 to 10000 nM
3,O=C(C1CCC(Oc2ncccn2)CC1)N1CCC(O)(Cn2cnc3c(cnn3-c3ccc(F)cc3)c2=O)CC1 (centres unmarked) [Compound I-748],200 to 1000 nM
4,O=C(C1CCC(Oc2cccnc2)CC1)N1CCC(O)(Cn2cnc3c(cnn3-c3ccc(F)cc3)c2=O)CC1 (centres unmarked) [Compound I-749],< 200 nM
5,O=C(C1CCC(Oc2cccnc2)CC1)N1CCC(O)(Cn2cnc3c(cnn3-c3ccc(F)cc3)c2=O)CC1 (centres unmarked) [Compound I-750],200 to 1000 nM
6,O=C(C1CCC(Oc2ccncc2)CC1)N1CCC(O)(Cn2cnc3c(cnn3-c3ccc(F)cc3)c2=O)CC1 (centres unmarked) [Compound I-751],1000 to 10000 nM
7,O=C(C1CCC(Oc2ccncc2)CC1)N1CCC(O)(Cn2cnc3c(cnn3-c3ccc(F)cc3)c2=O)CC1 (centres unmarked) [Compound I-752],< 200 nM
8,Cn1ccc(OC2CCC(C(=O)N3CCC(O)(Cn4cnc5c(cnn5-c5ccc(F)cc5)c4=O)CC3)CC2)n1 (centres unmarked) [Compound I-753],200 to 1000 nM
9,Cn1ccc(OC2CCC(C(=O)N3CCC(O)(Cn4cnc5c(cnn5-c5ccc(F)cc5)c4=O)CC3)CC2)n1 (centres unmarked) [Compound I-754],200 to 1000 nM
10,Cc1cc(OC2CCC(C(=O)N3CCC(O)(Cn4cnc5c(cnn5-c5ccc(F)cc5)c4=O)CC3)CC2)no1 (centres unmarked) [Compound I-755],200 to 1000 nM
11,Cc1cc(OC2CCC(C(=O)N3CCC(O)(Cn4cnc5c(cnn5-c5ccc(F)cc5)c4=O)CC3)CC2)no1 (centres unmarked) [Compound I-756],200 to 1000 nM
12,Cn1cc(OC2CCC(C(=O)N3CCC(O)(Cn4cnc5c(cnn5-c5ccc(F)cc5)c4=O)CC3)CC2)cn1 (centres unmarked) [Compound I-757],200 to 1000 nM
13,Cn1cc(OC2CCC(C(=O)N3CCC(O)(Cn4cnc5c(cnn5-c5ccc(F)cc5)c4=O)CC3)CC2)cn1 (centres unmarked) [Compound I-758],200 to 1000 nM
14,O=C(N1CCC(O)(Cn2cnc3c(cnn3-c3ccc(F)cc3)c2=O)CC1)N1CC[C@H]1Cc1ccccc1 [Compound I-760],1000 to 10000 nM
15,O=C(N1CCC(O)(Cn2cnc3c(cnn3-c3ccc(F)cc3)c2=O)CC1)N1CCc2cn[nH]c2C1 [Compound I-761],< 200 nM
16,Cn1ncc2c1CN(C(=O)N1CCC(O)(Cn3cnc4c(cnn4-c4ccc(F)cc4)c3=O)CC1)CC2 [Compound I-762],1000 to 10000 nM
17,Cn1nccc1NC1CCC(C(=O)N2CCC(O)(Cn3cnc4c(cnn4-c4ccc(F)cc4)c3=O)CC2)CC1 (centres unmarked) [Compound I-763],1000 to 10000 nM
18,Cn1nccc1NC1CCC(C(=O)N2CCC(O)(Cn3cnc4c(cnn4-c4ccc(F)cc4)c3=O)CC2)CC1 (centres unmarked) [Compound I-764],200 to 1000 nM
19,Cn1ccc(NC2CCC(C(=O)N3CCC(O)(Cn4cnc5c(cnn5-c5ccc(F)cc5)c4=O)CC3)CC2)n1 (centres unmarked) [Compound I-765],1000 to 10000 nM
20,Cn1ccc(NC2CCC(C(=O)N3CCC(O)(Cn4cnc5c(cnn5-c5ccc(F)cc5)c4=O)CC3)CC2)n1 (centres unmarked) [Compound I-766],200 to 1000 nM
21,O=C(C1CCC(Nc2ccccc2)CC1)N1CCC(O)(Cn2cnc3c(cnn3-c3ccc(F)cc3)c2=O)CC1 (centres unmarked) [Compound I-767],200 to 1000 nM
22,O=C(C1CCC(Nc2ccccc2)CC1)N1CCC(O)(Cn2cnc3c(cnn3-c3ccc(F)cc3)c2=O)CC1 (centres unmarked) [Compound I-768],< 200 nM
23,O=C(C1CCC(NC2CC2)CC1)N1CCC(O)(Cn2cnc3c(cnn3-c3ccc(F)cc3)c2=O)CC1 (centres unmarked) [Compound I-769],200 to 1000 nM
24,O=C(c1cnc(NC2CC2)o1)N1CCC(O)(Cn2cnc3c(cnn3-c3ccc(Cl)cc3)c2=O)CC1 [Compound I-771],200 to 1000 nM
25,Cn1cc(C(=O)N2CCC(O)(Cn3cnc4c(cnn4-c4ccc(Cl)cc4)c3=O)CC2)cn1 [Compound I-772],200 to 1000 nM
26,Cn1cc(-c2ccc(-n3ncc4c(=O)n(CC5(O)CCN(C(=O)C6(C)CC6)CC5)cnc43)cc2)cn1 [Compound I-775],200 to 1000 nM
27,Cn1cc(-c2ccc(-n3ncc4c(=O)n(CC5(O)CCN(C(=O)c6cnc(C7CC7)o6)CC5)cnc43)cc2)cn1 [Compound I-776],< 200 nM

# Same assay, conditions: USP7 assay A and B (table does not say which assay per compound); read-out: USP7_IC50
row,Structure (SMILES),IC50
1,NC1(c2cccc(-c3ccc(-n4ncc5c(=O)n(CC6(O)CCN(C(=O)C7CC7)CC6)cnc54)cc3)c2)COC1 [Compound I-691],1000 to 10000 nM
2,O=C(C1CC1)N1CCC(O)(Cn2cnc3c(cnn3-c3ccc(-c4ccccc4)c(N4CCNCC4)c3)c2=O)CC1 [Compound I-698],200 to 1000 nM
3,CN1CCN(c2ccc(-n3ncc4c(=O)n(CC5(O)CCN(C(=O)C6CC6)CC5)cnc43)cc2Cl)CC1 [Compound I-701],1000 to 10000 nM
4,Cn1cc(-n2ncc3c(=O)n(CC4(O)CCN(C(=O)c5ccc(F)cc5)CC4)cnc32)cn1 [Compound I-703],1000 to 10000 nM
5,O=C(c1ccc(F)cc1)N1CCC(O)(Cn2cnc3c(cnn3-c3cnn(-c4ccccc4)c3)c2=O)CC1 [Compound I-704],1000 to 10000 nM
6,O=C(c1ccc(OC(F)F)cc1)N1CCC(O)(Cn2cnc3c(cnn3-c3cnn(C4CC4)c3)c2=O)CC1 [Compound I-705],1000 to 10000 nM
7,CN(C)C(=O)N1CCC(O)(Cn2cnc3c(cc(-c4ccccc4)n3-c3ccc(F)cc3)c2=O)CC1 [Compound I-706],1000 to 10000 nM
8,CN(C)c1ccc(-n2ncc3c(=O)n(CC4(O)CCN(C(=O)c5ccc(F)cc5)CC4)cnc32)cc1 [Compound I-707],200 to 1000 nM
9,O=C(c1ccc(F)cc1)N1CCC(O)(Cn2cnc3c(cnn3-c3ccc(C4(O)CC4)cc3)c2=O)CC1 [Compound I-713],1000 to 10000 nM
10,Cn1ccc(Oc2ccc(C(=O)N3CCC(O)(Cn4cnc5c(cnn5-c5ccc(F)cc5)c4=O)CC3)cc2)n1 [Compound I-719],1000 to 10000 nM
